Values quoted from earlier work in patent US9005587B2, “Anti-bacterial and mineralizing calcium phosphate compositions” (New York University, priority 2011, dated 2015).

Test system: bacteria
Details: in vitro; Rolla et al. 1975

Compound: F [F−, fluoride]
- F− in solution needed to inhibit adsorption of bacteria on hydroxyapatite: approximately 9,500 ppm
